Measurements as given in patent publication US4665056A, “Dihydroorotic acid derivative and processes for preparing the same” (Tanabe Seiyaku Co., Ltd., priority 1984, dated 1987).

Key:
male STD/ddY mice [1] = experiment: Antagonistic effect on reserpine-induced hypothermia, oral administration; format: in vivo; settings: TRH tartrate taken as 1, parallel line assay method
Protocol: (§1) The pharmacological activities of test compounds estimated by oral administration.
(§2) A test compound dissolved in distilled water was orally administered to the mice, and the rectal temperature was measured 30, 60, 120, 180 and 300 minutes after the administration of the test compound. The increase in the body temperature of the medicated group of mice was compared with that of the control group of mice which received distilled water instead of the test compound solution.

male STD/ddY mice [2] = experiment: Antagonistic effect on reserpine-induced hypothermia, intraperitoneal administration; format: in vivo; settings: TRH taken as 1, parallel line assay method
Protocol: as §2
(§3) The pharmacological activities of test compounds estimated by parenteral administration.
(§4) The experiments were carried out in the same manner as described in Experiment 1 except that a test compound dissolved in a physiological saline solution was administered intraperitoneally to mice and, in estimating the increasing effect on spontaneous locomotor activity, said spontaneous locomotor activity was measured for 60 minutes immediately after administration of the test compound.

male STD/ddY mice [3] = experiment: Increasing effect on spontaneous locomotor activity, intraperitoneal administration; format: in vivo; settings: measured for 60 minutes, TRH taken as 1
Protocol: (§5) Male STD/ddY mice were individually placed in Ambulometer (i.e., an apparatus for measuring spontaneous locomotor activity; manufactured by OHARA IKA Co.) for 30 minutes to acclimatize to the apparatus. Thereafter, a test compound dissolved in distilled water was orally administered to the mice and, immediately after administration of the test compound, the spontaneous locomotor activity was measured for 3 hours. Distilled water was administered to the control group of mice instead of the test compound solution.
as §3, §4

male STD/ddY mice [4] = experiment: Antagonistic effect on pentobarbital anesthesia, intravenous administration; format: in vivo; settings: intravenous administration 10 min after pentobarbital sodium 55 mg/kg i.p., TRH taken as 1
Protocol: as §3
Pentobarbital sodium was intraperitoneally administered to male STD/ddY mice at a dose of 55 mg/kg. Ten minutes after the administration of pentobarbital sodium, a test compound dissolved in a physiological saline solution was intravenously administered to the mice which had lost the righting reflex. The duration of anesthesia was measured as the time from the end of administration of the test compound until the righting reflex regained. A physiological saline solution was administered to the control group of mice instead of the test compound solution.

male STD/ddY mice [5] = experiment: Potentiating effect on action of Dopamine (L-Dopa in reserpinized mice); format: in vivo; settings: intraperitoneal administration, reserpine 3 mg/kg s.c. and L-Dopa 200 mg/kg i.p., TRH taken as 1
Protocol: as §3
Reserpine was subcutaneously administered to male STD/ddY mice at a dose of 3 mg/kg, and about 16 to 20 hours later, L-Dopa was intraperitoneally administered to the mice at a dose of 200 mg/kg. Thirty minutes after administration of L-Dopa, a test compound dissolved in a physiological saline solution was administered intraperitoneally to the mice (when TRH was used as the test compound, it was administered 45 minutes after administration of L-Dopa). Spontaneous locomotor activity was measured by ANIMEX (i.e., an apparatus for mesuring spontaneous locomotor activity; manufactured by FERAD Co.) for 15 minutes starting from one hour after administration of L-Dopa. A physiological saline solution was administered to the control group of mice instead of the test compound solution.

male JCL:SD rats [6] = settings: TRH taken as 1; cited from earlier work
male STD/ddY mice [7] = settings: published data (Brain Research Reviews 4, 389 (1982)); cited from earlier work
male STD/ddY mice [8] = experiment: Increasing effect on spontaneous locomotor activity, oral administration; format: in vivo; settings: activity measured for 3 hours
Protocol: as §1, §5

male STD/ddY mice [9] = experiment: Antagonistic effect on pentobarbital anesthesia, oral administration; format: in vivo; settings: oral administration 15 min before pentobarbital sodium 55 mg/kg i.p.
Protocol: as §1
A test compound dissolved in distilled water was orally administered to male STD/ddY mice. Fifteen minutes after the administration of the test compound, pentobarbital sodium was intraperitoneally administered to the mice at a dose of 55 mg/kg. The duration of anesthesia was measured as the time from the disappearance of righting reflex to the recovery thereof. Distilled water was administered to the control group of mice instead of the test compound solution.

male JCL:SD rats [10] = experiment: TSH-releasing activity (side effect), serum TSH by radioimmunoassay; format: in vivo; settings: intravenous administration, serum TSH 15 min after, TRH taken as 1, parallel line assay method
Protocol: A test compound dissolved in a 0.1% BSA (bovine serum albumin)-containing physiological saline solution was intravenously administered to male JCL:SD rats. Fifteen minutes after the administration, blood was taken from the abdominal aorta under anesthesia. Serum TSH levels were determined by the double-antibody radioimmunoassay method (Midgley et al., Endocrinology., 79, 10 (1966)). The BSA-containing physiological saline solution was administered to the control group of rats instead of the test compound solution.

male STD/ddY mice [11] = experiment: Acute toxicity (LD50), intravenous; format: in vivo; settings: mortality 24 hours after administration
Protocol: A test compound was intravenously administered to male STD/ddY mice and the acute toxicity (LD50) thereof was determined from mortality of mice 24 hours after administration of the test compound.

SMILES | Potency ratio to TRH tartrate, antagonistic effect on reserpine-induced hypothermia (male STD/ddY mice [1]) | Potency ratio to TRH, antagonistic effect on reserpine-induced hypothermia (male STD/ddY mice [2]) | Potency ratio to TRH, increasing effect on spontaneous locomotor activity (male STD/ddY mice [3]) | Potency ratio to TRH, antagonistic effect on pentobarbital anesthesia (male STD/ddY mice [4]) | Potency ratio to TRH, potentiating effect on action of Dopamine (male STD/ddY mice [5]) | Potency ratio to TRH, TSH-releasing activity (published data) (male JCL:SD rats [6]) | LD50 (published data) (male STD/ddY mice [7]) | Minimum effective dose, increasing effect on spontaneous locomotor activity (male STD/ddY mice [8]) | Minimum effective dose, antagonistic effect on pentobarbital anesthesia (male STD/ddY mice [9]) | Therapeutic activity by oral administration | Potency ratio to TRH, TSH-releasing activity (male JCL:SD rats [10]) | LD50 (male STD/ddY mice [11])
NC(=O)[C@@H]1CCCN1C(=O)[C@H](Cc1c[nH]cn1)NC(=O)[C@@H]1CCC(=O)O1 [No. 1, (2,3,4,5-tetrahydro-2-oxo-L-5-furancarbonyl)-L-histidyl-L-prolinamide] | 3.4 | 5.7 | 3.5 | 1.3 | 2.5 | 1/40 | – | – | – | – | – | –
NC(=O)[C@@H]1CCCN1C(=O)[C@H](Cc1c[nH]cn1)NC(=O)c1cc(=O)[nH]c(=O)[nH]1 [No. 2, Orotyl-L-histidyl-L-prolinamide] | 13.0 | 7.4 | 3.8 | 1.9 | 2.6 | – | 1200 mg/kg, i.v. | – | – | – | – | –
NC(=O)[C@@H]1CCCN1C(=O)[C@H](Cc1cnc[nH]1)NC(=O)[C@@H]1CCC(=O)N1.O=C(O)C(O)C(O)C(=O)O [TRH tartrate] | – | – | – | – | – | – | – | > 100 mg/kg | > 100 mg/kg | – | – | –
NC(=O)[C@@H]1CCCN1C(=O)[C@H](Cc1cnc[nH]1)NC(=O)[C@@H]1CCC(=O)N1 [TRH, L-pyroglutamyl-L-histidyl-L-prolinamide] | – | – | – | – | – | – | 1450 mg/kg, i.v. | – | – | no substantial therapeutic effects | – | –
CN1C(=O)C[C@@H](C(=O)N[C@@H](Cc2c[nH]cn2)C(=O)N2CCC[C@H]2C(N)=O)NC1=O [The compound of the present invention, (1-methyl-L-4,5-dihydroorotyl)-L-histidyl-L-prolinamide] | 91.3 | 31.4 | 27.4 | 2.7 | 18.5 | – | – | 10 mg/kg | 1 mg/kg | excellent therapeutic activity even by oral administration | 1/30 | 1589 mg/kg, i.v.
